Tests used:
[1] = tested on: Asystasia intrusa; test: Test 4 plantation crop weeds, postemergence; format: in vivo; conditions: scale 0-100; for Control Rating 24 DAT: Table 4, at 4-leaf stage
Text: (§1) The object of this test was to evaluate the efficacy of the compound of this invention on weeds that infest some plantation crops at different growth stages of the weeds. Asystasia intrusa, Mikania cordata, goldenrod Solidago spp, Boston fern Nephrolepis exalata, and lalang Imparata cylindrica were planted in 15-cm plastic pots. Plants were sprayed postemergence with Compound I in a non-phytotoxic solvent. The Asystasia plants ranged in growth from 4 leaves to 9 leaves and very branched, Mikania had 6 leaves to vining, the goldenrod was branching and the Boston fern was growing vigorously. The degree of weed control was visually rated 20 to 24 days after treatment (DAT). Control ratings are based on the scale of 0 to 100 where 0 = no effect, 20 = minimal control and 100 = complete control. Variations in the results of the tests could be due to the fact that the tests were run at different times of the year or due to the stage of growth of the weeds.

[2] = tested on: Mikania cordata; test: Test 4 plantation crop weeds, postemergence; format: in vivo; conditions: scale 0-100
Text: as §1

[3] = tested on: Nephrolepis exalata; test: Test 4 plantation crop weeds, postemergence; format: in vivo; conditions: Table 4, scale 0-100
Text: as §1

[4] = tested on: Ball mustard; test: Test 7 postemergence; format: in vivo, Neslia paniculata; conditions: scale 0-100
Description: Individual 11.4-cm plastic pots filled with planting medium were seeded with rape, wild radish (Raphanus raphanistruna). tansy mustard (Descurainia pinnata), ball mustard (Neslia paniculata), black mustard (Brassica nigra), yellow mustard, brown mustard, lentils, safflower, flax, sunflower, peanut, vetch, alfalfa, field bean, pea, violet (Viola spp), Kochia (Kochia spp), Russian thistle (Salsola spp), Matricaria spp, groundsel (Senecio spp), shepherdspurse (Capsella bursa-pastoris), nightshade (Solanum spp), sowthistle (Sonchus spp), sugar beet, wheat, "Bonanza" barley and "Morex" barley, Kentucky bluegrass (Poa pratensis), red clover (Trifolium pratense), dandelion (Taraxacum spp) and buckhorn plantain (Plantago lanceolata).
Plants were treated postemergence with the compound formulated with a non-phytotoxic carrier. Plants were visually rated 18 days after treatment (DAT). Response ratings were based on the scale of 0 to 100 where 0 = no effect, 20 = minimal injury and 100 = complete control.

[5] = tested on: Mikanis cordata; test: Test 9 postemergence; format: in vivo, Mikania cordata; conditions: scale 0-100
Description: (§2) Plastic windowsill pots containing planting medium were seeded with bahiagrass, bindweed (Convolvulus spp), guinea grass (Panicum maximum), large crabgrass (Digitaria sanguinalis) and pigweed (Amaranthus spp). Individual 15-cm plastic pots contained sandbur (Cenchrus echinatus), Mikania cordata, Boston fern (Nephrolepis exalata), quackgrass (Agropyron repens), elephantgrass (Pennisetum purpureum) and sowthistle (Sonchus spp) plants.
(§3) Plants were treated postemergence with Compound I formulated in a non-phytotoxic solvent. Plants were visually rated 22 days after treatment (DAT). Injury and weed control ratings were based on the scale of 0 to 100 where 0 = no effect, 20 = minimal control and 100 = complete control.

[6] = tested on: Bindweed; test: Test 9 postemergence; format: in vivo, Convolvulus spp; conditions: 16 g/ha, scale 0-100
Description: as §2, §3

[7] = tested on: Grapes; test: Test 10 postemergence safety to crops and weed control; format: in vivo, Macedine grapes; conditions: scale 0-100
Description: (§4) The object of these tests was to evaluate the compound of this invention for postemergence safety to crops and weed control. Seedling and budded Macedine grapes were grown in 11.4-cm pots. Flax, green foxtail (Setaria viridis), "Morex" barley, wild oats (Avena fatua), "Era" wheat, annual ryegrass (Lolium multiflorum), wild radish (Raphanus raphanistrum), rape, sunflower, chickweed (Stellaria media) and wild buckwheat (Polygonum convolvulus) were seeded in windowsill pots.
(§5) The plants were sprayed postemergence with Compound I in a non-phytotoxic solvent. Plants were visually rated 15 and 27 days after treatment (DAT). Injury and weed control ratings were based on the scale of 0 to 100 where 0 = no effect, 20 minimal control and 100 = complete control.

[8] = tested on: Wild radish; test: as above; format: in vivo, Raphanus raphanistrum; conditions: 16 g/ha, scale 0-100
Description: as §4, §5

[9] = tested on: Common ragweed; test: Test 11 windowsill flats, postemergence; format: in vivo, Ambrosia artemisiifolia; conditions: Postemergence 32 g/ha, 0.25% X-77 surfactant, scale 0-100
Description: (§6) Budded citrus seedlings were planted in 30-liter plastic pots which were also seeded with sandbur, guineagrass, narrowleaf panicum, common ragweed, yellow nutsedge, purple nutsedge and bindweed. Compound I was applied preemergence and postemergence to the weeds. Treatments were sprayed to simulate the trunk-to-trunk herbicide application method used in some citrus groves. The compound was also applied postemergence to weeds grown in windowsill flats. The flats were filled with planting medium and seeded with morningglory (Ipomoea spp.). purple nutsedge (Cyperus rotundus), pigweed (Amaranthus spp.), bindweed (Convolvulus spp.), narrowleaf panicum (Panicum maximum), common ragweed (Ambrosia artemisiifolia), sandbur (Cenchrus echinatus), itchgrass (Rottboellia exaltata), johnsongrass (Sorghum halepense), guineagrass (Panicum maximum), smooth crabgrass (Digitaria ischaemum), broadleaf signalgrass (Brachiaria platyphylla), bermudagrass (Cynodon dactylon), goosegrass (Eleusine indica), large crabgrass (Digitaria sanguinalis) and yellow nutsedge (Cyperus esculentus).
(§7) The compound was formulated and sprayed with 0.25% X-77 surfactant in water. Plants were visually rated 21 and 29 days after treatment and compared with appropriate controls. Injury ratings were based on the scale of 0 to 100, where 0 indicates no effect, 20 indicates minimum effect and 100 indicates complete control. […]

[10] = tested on: Large Crabgrass; test: Test 11 windowsill flats, postemergence; format: in vivo, Digitaria sanguinalis; conditions: Postemergence 32 g/ha, 0.25% X-77 surfactant, scale 0-100
Description: as §6, §7

[11] = Table 6, profusely branching, 8 g/ha
[12] = Table 6, profusely branching, 16 g/ha
[13] = Table 6, profusely branching, 32 g/ha
[14] = Table 6, profusely branching, 64 g/ha

COC(=O)c1cccnc1S(=O)(=O)NC(=O)Nc1nc(OC)cc(OC)n1 [Compound I, 2-[[(4,6-dimethoxypyrimidin-2-yl)aminocarbonyl]aminosulfonyl]-3-pyridinecarboxylic acid, methyl ester]
Control Rating 24 DAT ([1]; 4 g/ha): 20 | Control Rating 24 DAT ([1]; 8 g/ha): 30 | Control Rating 24 DAT ([1]; 16 g/ha): 40 | Control Rating 24 DAT ([1]; 32 g/ha): 50 | Control Rating 24 DAT ([1]; 64 g/ha): 60 | Control Rating 20 DAT ([1]; Table 5, at 6 to 9-leaf stage, 8 g/ha): 0 | Control Rating 20 DAT ([1]; Table 5, at 6 to 9-leaf stage, 16 g/ha): 60 | Control Rating 20 DAT ([1]; Table 5, at 6 to 9-leaf stage, 32 g/ha): 90 | Control Rating 20 DAT ([1]; Table 5, at 6 to 9-leaf stage, 64 g/ha): 100 | Control Rating 20 DAT [1, 11]: 0 | Control Rating 20 DAT [1, 12]: 0 | Control Rating 20 DAT [1, 13]: 0 | Control Rating 20 DAT [1, 14]: 30 | Control Rating 20 DAT ([2]; Table 5, at 6 to 8-leaf stage, 8 g/ha): 0 | Control Rating 20 DAT ([2]; Table 5, at 6 to 8-leaf stage, 16 g/ha): 0 | Control Rating 20 DAT ([2]; Table 5, at 6 to 8-leaf stage, 32 g/ha): 0 | Control Rating 20 DAT ([2]; Table 5, at 6 to 8-leaf stage, 64 g/ha): 30 | Control Rating 20 DAT [2, 11]: 0 | Control Rating 20 DAT [2, 12]: 0 | Control Rating 20 DAT [2, 13]: 0 | Control Rating 20 DAT [2, 14]: 0 | Control Rating 22 DAT ([2]; Table 7, vining and profusely branching, 8 g/ha): 0 | Control Rating 22 DAT ([2]; Table 7, vining and profusely branching, 16 g/ha): 0 | Control Rating 22 DAT ([2]; Table 7, vining and profusely branching, 32 g/ha): 0 | Control Rating 22 DAT ([2]; Table 7, vining and profusely branching, 64 g/ha): 20 | Control Rating 22 DAT ([2]; Table 8, 16 g/ha): 0 | Control Rating 22 DAT ([2]; Table 8, 32 g/ha): 0 | Control Rating 22 DAT ([2]; Table 8, 64 g/ha): 20 | Control Rating 24 DAT ([3]; 4 g/ha): 0 | Control Rating 24 DAT ([3]; 8 g/ha): 0 | Control Rating 24 DAT ([3]; 16 g/ha): 40 | Control Rating 24 DAT ([3]; 32 g/ha): 60 | Control Rating 24 DAT ([3]; 64 g/ha): 80 | Plant Injury Rating 18 DAT ([4]; 16 g/ha): 100 | Plant Injury Rating 18 DAT ([4]; 32 g/ha): 100 | Plant Injury Rating 22 DAT ([5]; 8 g/ha): 0 | Plant Injury Rating 22 DAT ([5]; 16 g/ha): 0 | Plant Injury Rating 22 DAT ([5]; 32 g/ha): 30 | Plant Injury Rating 22 DAT [6]: 70 | Plant Injury Rating 27 DAT ([7]; Budded grapes, 1 g/ha): 0 | Plant Injury Rating 27 DAT ([7]; Budded grapes, 2 g/ha): 0 | Plant Injury Rating 27 DAT ([7]; Budded grapes, 4 g/ha): 0 | Plant Injury Rating 27 DAT ([7]; Budded grapes, 8 g/ha): 0 | Plant Injury Rating 27 DAT ([7]; Budded grapes, 16 g/ha): 10 | Plant Injury Rating 27 DAT ([7]; Budded grapes, 32 g/ha): 10 | Plant Injury Rating 27 DAT ([7]; Seedling grapes, 1 g/ha): 0 | Plant Injury Rating 27 DAT ([7]; Seedling grapes, 2 g/ha): 0 | Plant Injury Rating 27 DAT ([7]; Seedling grapes, 4 g/ha): 0 | Plant Injury Rating 27 DAT ([7]; Seedling grapes, 8 g/ha): 10 | Plant Injury Rating 27 DAT ([7]; Seedling grapes, 16 g/ha): 20 | Plant Injury Rating 27 DAT ([7]; Seedling grapes, 32 g/ha): 20 | Plant Injury Rating 15 DAT [8]: 100 | Injury ratings [9]: 0 | Injury ratings [10]: 80

Source: patent EP0314302A2, “Herbicidal o-carbomethoxy-sulfonylureas” (E.I. DU PONT DE NEMOURS AND COMPANY, priority 1987, dated 1989)
